Biological target: Mitogen-activated protein kinase 14 (Homo sapiens, UniProt Q16539)
Assay: Inhibition of p38-alpha MAP kinase

Mitogen-activated protein kinase 14, sequence (Q16539 whole entry): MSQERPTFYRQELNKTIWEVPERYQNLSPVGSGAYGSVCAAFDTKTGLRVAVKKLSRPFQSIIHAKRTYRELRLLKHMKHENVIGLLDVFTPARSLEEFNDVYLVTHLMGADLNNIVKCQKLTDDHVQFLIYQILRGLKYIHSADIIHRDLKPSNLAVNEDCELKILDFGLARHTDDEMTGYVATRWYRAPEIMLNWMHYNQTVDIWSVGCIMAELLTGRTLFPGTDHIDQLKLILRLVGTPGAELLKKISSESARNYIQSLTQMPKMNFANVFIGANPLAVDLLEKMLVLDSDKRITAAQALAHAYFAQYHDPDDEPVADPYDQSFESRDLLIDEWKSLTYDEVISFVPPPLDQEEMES

| SMILES | IC50 [nM] |
| --- | --- |
| CC(C)n1ccc2cc(C(=O)N3CCc4c(cnn4-c4ccccc4Cl)C3)ccc21 | 39 |
| O=C(c1c(F)cccc1F)N1CCc2c(cnn2-c2ccccc2Cl)C1 | 68 |
| O=C(c1cc2ccccc2[nH]1)N1CCc2c(cnn2-c2ccccc2Cl)C1 | 154 |
| Cn1cc(C(=O)N2CCc3c(cnn3-c3ccccc3Cl)C2)c2ccccc21 | 40 |
| O=C(c1ccc2cc[nH]c2c1)N1CCc2c(cnn2-c2ccccc2Cl)C1 | 40 |
| Cn1ccc2cc(C(=O)N3CCn4c(cnc4-c4ccc(F)cc4F)C3)c(Cl)cc21 | 50 |
| O=C(c1ccc(F)cc1F)N1CCn2c(cnc2-c2ccc(F)cc2F)C1 | 593 |
| CN(C)C(=O)C(=O)c1cn(C)c2cc(Cl)c(C(=O)N3CCc4c(ncnc4-c4ccc(F)cc4F)C3)cc12 | 195 |
| COc1nc2[nH]ccc2cc1C(=O)N1CCn2c(cnc2-c2ccc(F)cc2F)C1 | 164 |
| O=C(c1c[nH]c2ccccc12)N1CCc2c(cnn2-c2ccccc2Cl)C1 | 55 |
| O=C(c1c(F)cccc1F)N1CCc2c(cnn2-c2ccc(F)cc2Cl)C1 | 97 |
| O=C(c1c(F)cccc1F)N1CCn2c(cnc2-c2ccc(F)cc2F)C1 | 167 |
| COc1nc2[nH]ccc2cc1C(=O)N1CCc2c(cnn2-c2ccccc2Cl)C1 | 137 |
| O=C(c1c(Cl)cccc1Cl)N1CCc2c(cnn2-c2ccccc2Cl)C1 | 112 |

Results, then the compound that gave them:

| IC50 [nM] | SMILES |
| --- | --- |
| 30 | Cn1ccc2cc(C(=O)N3CCc4c(cnn4-c4ccccc4Cl)C3)ccc21 |
| 14 | CN(C)C(=O)C(=O)c1cn(C)c2cc(Cl)c(C(=O)N3CCn4c(cnc4-c4ccc(F)cc4F)C3)cc12 |
| 37 | CN(C)C(=O)C(=O)c1c[nH]c2ccc(C(=O)N3CCc4c(cnn4-c4ccccc4Cl)C3)cc12 |
| 38 | COc1cc2c(ccn2C)cc1C(=O)N1CCn2c(cnc2-c2ccc(F)cc2F)C1 |
| 37 | O=C(c1cccc2[nH]ccc12)N1CCc2c(cnn2-c2ccccc2Cl)C1 |
| 29 | COc1nc2[nH]cc(C(=O)C(=O)N(C)C)c2cc1C(=O)N1CCc2c(cnn2-c2ccccc2Cl)C1 |
| 26 | Cn1ccc2cc(C(=O)N3CCc4c(cnn4-c4ccccc4Cl)C3)c(Cl)cc21 |
| 13 | COc1cc2c(cc1C(=O)N1CCn3c(cnc3-c3ccc(F)cc3F)C1)c(C(=O)C(=O)N(C)C)cn2C |
| 29 | COc1nc2[nH]cc(C(=O)C(=O)N(C)C)c2cc1C(=O)N1CCn2c(cnc2-c2ccc(F)cc2F)C1 |
| 11 | CN(C)C(=O)C(=O)c1c[nH]c2cc(Cl)c(C(=O)N3CCn4c(cnc4-c4ccc(F)cc4F)C3)cc12 |
| 33 | CN(C)C(=O)C(=O)c1cn(C)c2cc(Cl)c(C(=O)N3CCc4c(cnn4-c4ccccc4Cl)C3)cc12 |
| 16 | COc1nc2c(cc1C(=O)N1CCn3c(cnc3-c3ccc(F)cc3F)C1)c(C(=O)C(=O)N1CCC(O)C1)cn2C (racemic) |
